# From patent US20260218126A1, “METHOD FOR PRODUCING RETINAL TISSUE” (RACTHERA CO., LTD., priority 2023, published 2026)
# B1: BMP4: human recombinant BMP4 (R&D), BMP signaling activator (protein, UniProt P12644 293-408, looked up)
# Bone morphogenetic protein 4: SPKHHSQRARKKNKNCRRHSLYVDFSDVGWNDWIVAPPGYQAFYCHGDCPFPLADHLNSTNHAIVQTLVNSVNSSIPKACCVPTELSAISMLYLDEYDKVVLKNYQEMVVEGCGCR
# What was measured:
# Assay type in all cases: cell-based
# KhES-1_Rx::Venus cells = assay: Retinal differentiation induction with or without LDN-193189 addition (GFP and Chx10 expression)
# Description: • 1. KhES-1_Rx::Venus cells (KhES-1 cells obtained by knocking a GFP variant called Venus in the locus of a retinal marker Rx) that reached optimal confluence were collected by removing the medium and washed twice with 1 mL of PBS (−). • 2. The cells were incubated at 37° C. and 5% CO2 with 0.5×TrypLE™ Select added at 500 μL/well. • 3. After the 0.5×TrypLE™ Select was removed, PBS (−) was added to the well at 2 mL/well and the cells were peeled off by spraying PBS (−). • 4. The cells were collected into a 15 mL Falcon tube and the cell number was counted. • 5. The required number of cells (5×10^5 cells per dish) was transferred to another tube and centrifuged at 1000 rpm at 20° C. for 5 minutes. • 6. After the supernatant was removed, the cells were suspended with AK02N+Y to provide a cell suspension of 5×10^5 cells/200 μL AK02N+Y. • 7. The iMatrix coating solution within the PDMS sheet was removed with an aspirator and the cell suspension (5×10^5 cells/200 μL AK02N+Y) was added to the circle and incubated at 37° C. for 30 minutes. • 8. The PDMS sheet was removed from the dish with sterilized tweezers. • 9. The cells was cultured at 37° C. and 5% CO2 with 300 μL of AK02 N+Y added to the dish. <Day 1: Medium Replacement with AK02+PS> • 1. The whole medium was replaced with 1 mL of gfCDM (10% KSR) containing LDN-193189 (04-0074-02, ReproCELL Inc.) (hereinafter referred to as LDN). (final concentration of 100 nM LDN). […] Expressions of Chx10, Recoverin, FOXG1, Crx, Tuj1, Zo-1, and Pax6 were evaluated by immunostaining with primary antibodies specific for the respective markers and secondary antibodies suitable for the primary antibodies. The effect of LDN-193189, a BMP signaling inhibitor, on the differentiation induction was evaluated. […] Also, expressions of GFP and Chx10 at Day 18 were evaluated in the patterned and non-patterned cells with or without the LDN-193189 addition. The Chx10 expression was assessed by quantitative PCR (using HPRT1 as an endogenous control) and immunostaining.
# [1] = test system: human iPS cells (DSP-SQ line); assay: Duration of action of Y-27632 at cell seeding in patterning culture (DSP-SQ line); settings: shortening the duration of action of Y-27632; Day 20; immunostaining
# Description: (§1) For patterning, a droplet (1 cm in diameter) of a solution containing 0.785 μl of Laminin511-E8 (Nippi. Inc.) in 100 μl of PBS (Laminin51l-E8 concentration of 3.925 ng/μl) was made in the center of the wells of a 12-well plate (Iwaki, for cell culture, culture area 3.8 cm^2) and then incubated at 37° C. or room temperature for 1 to 3 hours to prepare 12-well-plates for patterning culture (Laminin511-E8: 0.5 μg/cm^2).
# First, a 12-well plate for patterning culture prepared by the method described in Example 1 was provided, and subconfluent human iPS cells (LPF11 and DSP-SQ lines) were washed with PBS and dispersed into single cells using TrypLE Select (Life Technologies). […]
# (§2) The patterning culture was then performed as described in Example 1, and on Day 20 of seeding, cells were fixed with 4% paraformaldehyde and bright-field images were obtained with a fluorescence microscope (Keyence). […] The percentage of Chx10-positive areas on the sheet surface was calculated using ImageJ software (NIH) and was 91% for sheets with Y-27632 for 32 hours, compared to 97% or more for sheets with Y-27632 for 16 hours or less (16 hours: 97%, 8 hours: 99%, 4 hours: 98%, 2 hours: 99%).
# [2] = test system: human iPS cells (LPF11 line); assay: Duration of action of Y-27632 at cell seeding in patterning culture (LPF11 line); settings: for percentage of Chx10-positive areas on the sheet surface: ImageJ
# Description: The percentage of area covered by a retinal tissue on the region A may be measured by any methods, and for example, can be measured by staining the retinal tissue. For example, it is measured by staining expression of the retinal cell marker described above (such as Chx10) (e.g., by immunostaining with a fluorescently labeled anti-Chx10 antibody). Then, by using imaging software such as ImageJ software (NIH), the ratio of the area of the retinal cell marker-positive region to the area of the region A can be calculated.
# as §1
# (§3) First, a 12-well plate for patterning culture prepared by the method described in Example 1 was provided, and subconfluent human iPS cells (LPF11 and DSP-SQ lines) were washed with PBS and dispersed into single cells using TrypLE Select (Life Technologies). The human iPS cells dispersed into single cells were then seeded into one well of the patterning culture plate at a density of 2.0×10^5 cells/cm^2 and cultured under feeder-free condition in Stemfit medium in the presence of Y-27632 (ROCK inhibitor, 10 μM). Then, after 2, 4, 8, 16, or 32 hours culture, the medium was replaced with 2 ml of StemFit medium without Y-27632.
# as §2
# [3] = test system: human iPS cells (LPF11 line); assay: BMP4 concentration for retinal differentiation by patterning culture (Rx immunostaining, real-time PCR); settings: Day 20
# Description: as §3, with “line)” for “and DSP-SQ lines)”, “Two” for “Then, after 2, 4, 8, 16, or 32”, “later,” for “culture,”, “Y-27632 and patterning culture was performed as described in Example 1.” for “Y-27632.”
# On Day 7 of patterning culture, the medium was replaced with serum-free medium (gfCDM+KSR) containing exogenous human recombinant BMP4 (R&D) at a final concentration of 0, 1.5, 3, 6, or 12 nM. Thereafter, half of the medium was replaced with serum-free medium (gfCDM+KSR) without human recombinant BMP4 every 2 to 3 days. […]
# Total RNA was then extracted from the retinal tissue using a spin column (QIAGEN, RNeasy Micro kit) by the method described in the kit. The concentration of total RNA was measured by a measuring device (Nanodrop, Thermo scientific) and then reverse transcribed into cDNA using reverse transcriptase and primers (Reverse Transcription Master Mix Kit, Fluidigm). […] The Pre-Run reaction solutions were then injected into a flow-through multi-well (96. 96 Dynamic Array IFC, Fluidigm) using an IFC Controller HX (Fluidigm), and the expression levels of marker genes for neural retina and for by-products other than neural retina were determined by real-time PCR using a multi-sample real-time PCR system (Biomark HD, Fluidigm).
# Specifically, the ΔCt value was calculated from the difference between the Ct value of the target gene and the Ct value of GAPDH, the gene used as the internal standard, and the ratio of expression level of each gene was calculated from the difference in ΔCt between samples (ΔΔCt).
molecule,measurement,setting,value
"c1ccc2c(-c3cnn4cc(-c5ccc(N6CCNCC6)cc5)cnc34)ccnc2c1 [LDN-193189, 4-[6-(4-Piperazin-1-ylphenyl)pyrazolo[1,5-a]pyrimidin-3-yl]quinoline]",GFP expression,"KhES-1_Rx::Venus cells; Day 11, patterning culture, LDN-193189 100 nM from Day 3 to Day 8, compared to cells without LDN-193189",uniform GFP expression
same,Chx10 expression,"KhES-1_Rx::Venus cells; Day 18, without patterning culture, quantitative PCR (HPRT1 control) and immunostaining, with vs without LDN-193189 addition",increased
same,GFP expression,"KhES-1_Rx::Venus cells; Day 18, without patterning culture, with vs without LDN-193189 addition",increased
C[C@@H](N)[C@H]1CC[C@H](C(=O)Nc2ccncc2)CC1 [Y-27632],Chx10-negative areas on the sheet surface,[1],fewer Chx10-negative areas
same,survival of human iPS cells after removing Y-27632,"[2]; Y-27632 10 μM for 2, 4, 8, 16 or 32 hours, LPF11 and DSP-SQ lines",survived
same,percentage of Chx10-positive areas on the sheet surface,"[2]; Y-27632 10 μM for 2 hours, Day 20",99%
same,percentage of Chx10-positive areas on the sheet surface,"[2]; Y-27632 10 μM for 4 hours, Day 20",98%
same,percentage of Chx10-positive areas on the sheet surface,"[2]; Y-27632 10 μM for 8 hours, Day 20",99%
same,percentage of Chx10-positive areas on the sheet surface,"[2]; Y-27632 10 μM for 16 hours or less, Day 20",≥ 97%
same,percentage of Chx10-positive areas on the sheet surface,"[2]; Y-27632 10 μM for 16 hours, Day 20",97%
same,percentage of Chx10-positive areas on the sheet surface,"[2]; Y-27632 10 μM for 32 hours, Day 20",91%
same,holes on the cell sheet surface,"[2]; longer duration of action of Y-27632 (2 to 32 hours), Day 20, bright-field",the more holes were created
B1,expression of retinal progenitor cell marker Rx (immunostaining),[3]; BMP4 3 to 12 nM compared to 1.5 nM,more strongly expressed
same,"expression of retinal progenitor cell marker genes Chx10 and Rx (relative mRNA, real-time PCR)","[3]; BMP4 3 to 12 nM compared to 1.5 nM, GAPDH internal standard",higher expression
same,"expression of Emx2, marker gene for unintended cells (relative mRNA, real-time PCR)",[3]; BMP4 3 to 12 nM,low and suppressed expression
